Results: patent EP0554004A2, “Cephem compounds and antibacterial agents” (KATAYAMA SEIYAKUSYO CO. Ltd., priority 1992, dated 1993)

Assays:
[1] = test system: clinically isolated MRSA; assay: Antibacterial potency against clinically isolated MRSA (Test Example 4); type: cell-based, methicillin-resistant Staphylococcus aureus; conditions: Staphylococcus aureus, 52 strains of clinically isolated MRSA; for MIC50: concentration inhibiting growth of 50% of the strains (Test Example 4), read-out: MIC50; for MIC90: concentration inhibiting growth of 90% of the strains (Test Example 4), read-out: MIC90
Method: 52 strains of clinically isolated MRSA were used, and MIC was determined for each of the strains according to the standard method of the Japan Chemotherapical Society as in Test Example 1. The minimum growth inhibitory concentration which inhibited growth of 50% of the strains tested was expressed as MIC50 (µg/ml), and the minimum growth inhibitory concentration which inhibited growth of 90% of the strains was expressed as MIC90 (µg/ml).
MIC 50 and MIC 90 were determined for each of the 52 strains of clinically isolated MRSA according to the same method as used in Test Example 2.
VCM (vancomycin) was used as control agent.

[2] = test system: E. coli NIHJ JC-2; assay: MIC against standard strains (Test Example 3); type: cell-based; conditions: Escherichia coli, NIHJJC2; E. coli NIHJ JC-2 (Test Example 3); read-out: MIC
Method: (§1) By using each test strain cultured overnight at 37°C in a Muller-Hinton broth, there was prepared a bacterial solution with a bacterial cell population of 1 x 10^6 CFU/mi of the same bouillon. The bacterial solution was inoculated into the Muller-Hinton agar media each containing respectively one test agent and, after overnight incubation at 37°C, the minimum concentration that inhibited growth of the bacteria was determined and shown as MIC also in Table 1.
(§2) The minimum growth inhibitory concentration was determined for each of the 21 standard strains shown in Table 3, according to the same method as used in Test Example 1.
(§3) In the test, FMOX (flomoxef), CTM (cefotiam) and CEZ (cefazolin) were used as control agents.

[3] = test system: A. faecalis ATCC3750; assay: MIC against standard strains (Test Example 3); type: cell-based; conditions: Alcaligenes faecalis; A. faecalis ATCC3750 (Test Example 3); read-out: MIC
Method: as §1, §2, §3

[4] = test system: K. pneumoniae IFO3317; assay: MIC against standard strains (Test Example 3); type: cell-based; conditions: Klebsiella pneumoniae; K. pneumoniae IFO3317 (Test Example 3); read-out: MIC
Method: as §1, §2, §3

[5] = test system: P. vulugaris OX-19; assay: MIC against standard strains (Test Example 3); type: cell-based; conditions: P. vulugaris OX-19 (Test Example 3); read-out: MIC
Method: as §1, §2, §3

[6] = test system: P. aeruginosa NCTC10490; assay: MIC against standard strains (Test Example 3); type: cell-based; conditions: Pseudomonas aeruginosa; P. aeruginosa NCTC10490 (Test Example 3); read-out: MIC
Method: as §1, §2, §3

[7] = test system: S. aureus 167; assay: MIC against standard strains (Test Example 3); type: cell-based; conditions: Staphylococcus aureus; S. aureus 167 (MRSA) (Test Example 3); read-out: MIC
Method: as §1, §2, §3

[8] = test system: E. cloacae ATCC13407; assay: MIC against standard strains (Test Example 3); type: cell-based; conditions: Enterobacter cloacae; E. cloacae ATCC13407 (Test Example 3); read-out: MIC
Method: as §1, §2, §3

[9] = test system: A. calcoaceticos T59; assay: MIC against standard strains (Test Example 3); type: cell-based; conditions: A. calcoaceticos T59 (Test Example 3); read-out: MIC
Method: as §1, §2, §3

[10] = test system: B. subtilis ATCC6633; assay: MIC against standard strains (Test Example 3); type: cell-based; conditions: Bacillus subtilis; B. subtilis ATCC6633 (Test Example 3); read-out: MIC
Method: as §1, §2, §3

[11] = test system: C. freundii ATCC8090; assay: MIC against standard strains (Test Example 3); type: cell-based; conditions: Citrobacter freundii; C. freundii ATCC8090 (Test Example 3); read-out: MIC
Method: as §1, §2, §3

[12] = test system: M. luteus ATCC 9341; assay: MIC against standard strains (Test Example 3); type: cell-based; conditions: Micrococcus luteus, ATCC9341; M. luteus ATCC 9341 (Test Example 3); read-out: MIC
Method: as §1, §2, §3

[13] = test system: S. aureus Smith; assay: MIC against standard strains (Test Example 3); type: cell-based; conditions: Staphylococcus aureus; S. aureus Smith (Test Example 3); read-out: MIC
Method: as §1, §2, §3

[14] = test system: E. coli CSH2 (RK1); assay: MIC against standard strains (Test Example 3); type: cell-based; conditions: Escherichia coli
Method: as §1, §2, §3

[15] = test system: E. coli CSH2 (RE45); assay: MIC against standard strains (Test Example 3); type: cell-based; conditions: Escherichia coli
Method: as §1, §2, §3

[16] = test system: M. Morganii IFO3848; assay: MIC against standard strains (Test Example 3); type: cell-based; conditions: Morganella morganii; M. Morganii IFO3848 (Test Example 3); read-out: MIC
Method: as §1, §2, §3

[17] = test system: K. pneumoniae No. 42; assay: MIC against standard strains (Test Example 3); type: cell-based; conditions: Klebsiella pneumoniae; K. pneumoniae No. 42 (Test Example 3); read-out: MIC
Method: as §1, §2, §3

[18] = test system: P. mirabilis IFO3849; assay: MIC against standard strains (Test Example 3); type: cell-based; conditions: Proteus mirabilis; P. mirabilis IFO3849 (Test Example 3); read-out: MIC
Method: as §1, §2, §3

[19] = test system: S. marcescens IAM1184; assay: MIC against standard strains (Test Example 3); type: cell-based; conditions: Serratia marcescens; S. marcescens IAM1184 (Test Example 3); read-out: MIC
Method: as §1, §2, §3

[20] = test system: S. aureus 195; assay: MIC against standard strains (Test Example 3); type: cell-based; conditions: Staphylococcus aureus; S. aureus 195 (MRSA) (Test Example 3); read-out: MIC
Method: as §1, §2, §3

[21] = test system: S. aureus 209p JC-1; assay: MIC against standard strains (Test Example 3); type: cell-based; conditions: Staphylococcus aureus; S. aureus 209p JC-1 (Test Example 3); read-out: MIC
Method: as §1, §2, §3

[22] = test system: S. epidemidis IAM1296; assay: MIC against standard strains (Test Example 3); type: cell-based; conditions: S. epidemidis IAM1296 (Test Example 3); read-out: MIC
Method: as §1, §2, §3

SMILES	MIC50 [1] [µg/mL]	MIC90 [1] [µg/mL]	MIC [2] [µg/mL]	MIC [3] [µg/mL]	MIC [4] [µg/mL]	MIC [5] [µg/mL]	MIC [6] [µg/mL]	MIC [7] [µg/mL]	MIC [8] [µg/mL]	MIC [9] [µg/mL]	MIC [10] [µg/mL]	MIC [11] [µg/mL]	MIC [12] [µg/mL]	MIC [13] [µg/mL]	MIC [14] [µg/mL]	MIC [15] [µg/mL]	MIC [16] [µg/mL]	MIC [17] [µg/mL]	MIC [18] [µg/mL]	MIC [19] [µg/mL]	also measured
CNc1nc(-c2cc[n+](CC3=C(C(=O)[O-])N4C(=O)[C@@H](NC(=O)/C(=N\O)c5csc(N)n5)[C@H]4SC3)cc2)cs1 [Compound (12), 7β-[2-(2-aminothiazol-4-yl)-2-syn-hydroxyiminoacetamido]-3-[[4-(2-methylaminothiazol-4-yl)-1-pyridinio]methyl]-3-cephem-4-carboxylic acid chloride]	1.86	4.61	0.2	1.56	0.1	0.1	12.5	5.25	1.56	50	0.2	0.39	0.05	0.39	0.39	0.2	0.05	0.78	0.78	0.78	MIC [20]: 3.13 µg/mL; MIC [21]: 0.39 µg/mL; MIC [22]: 0.2 µg/mL
Cc1nc(-c2ccc[n+](CC3=C(C(=O)[O-])N4C(=O)[C@@H](NC(=O)/C(=N\O)c5csc(N)n5)[C@H]4SC3)c2)cs1 [Compound (11), 7β-[2-(2-aminothiazol-4-yl)-2-syn-hydroxyiminoacetamido]-3-[[3-(2-methylthiazol-4-yl)-I-pyridinio]methyl]-3-cephem-4-carboxylic acid chloride]	1.85	3.04	0.39	3.13	0.2	0.2	6.25	3.13	3.13	25	0.2	0.39	0.05	0.39	0.78	0.39	0.1	0.78	0.78	0.39	MIC [20]: 1.56 µg/mL; MIC [21]: 0.2 µg/mL; MIC [22]: 0.1 µg/mL
